Experimental data from US20250197355A1, “TEAD Targeting Compounds and Methods Thereof” (Agency for Science, Technology and Research, priority 2022, published 2025).

What was measured:
Type in all cases: cell-based
[1] = system: hippo signaling target proteins (TEAD4, Pan-TEADs, YAP, TAZ); test: Immunoblotting of hippo signaling target proteins in A549 whole cell lysates; settings: A549 cells, 24 hrs
Method: Method: A549 cells (at 60% confluency) either mock treated or treated with indicated doses of CPD10 and CPD13 for 24 hrs. Cells were washed with ice-cold 1×PBS and lysed in protein lysis buffer. Whole cell lysates were quantified by Pierce™ BCA Protein assay kit (Catalog number: 23225) and denatured in 4×LDS buffer (Thermo catalog number: NP0007) added with competing amount of DTT followed by boiling for 3 minutes. Samples were resolved in 8% of SDS-PAGE, transferred onto nitrocellulose membrane and immunoblotting was performed with indicated antibodies.
Result: To determine the CPD10 and CPD13 mediated expression of hippo signaling target proteins in A549 cells, whole cell lysates from mock treated and compounds treated cells were immunoblotted to determine the level of TEAD4, Pan-TEADs, YAP, TAZ proteins. […] Similar to CPD10, CPD13 downregulate YAP expression at 10 Um (B). To determine the level of other transcriptional targets, we tested the p53 protein in same sets of protein samples. […] GAPDH was used as loading control.

[2] = system: TEADs transcriptional target genes; test: RT PCR transcriptional profiling of TEADs target genes in A549 cells
Method: Method: A549 cells (at 60% confluency) either mock treated or treated with indicated doses of CPD 10 and CPD13 for 24 hrs. Cells were washed with ice-cold 1×PBS. RNA extraction was performed with Quick-RNA™ miniprep kit (Zymo Research, Cat. No. R1055), strictly according to manufacturer's instructions. Nanodrop quantified 2 μg of RNA samples were used for cDNA synthesis with cDNA Reverse Transcription Kit (Thermo Cat. No. 4368814) strictly according to the manufacturer's instructions. In RT PCR experiment, comparative target gene expression was performed by SYBR™ Green (Thermo Cat. No. 4309155) Master mix. Relative target gene expressions were compared and plotted on Y-Axis.
Result: Relative expression of YAP and TAZ in response to low dose of CPD10 (A) and CPD13 (B) treatment in A549 cells. c-MYC was included as non-transcriptional target of the TEADs. NFKB1 was included as its expression is reciprocal to the YAP/TAZ. Downstream effectors of the TEADs targets (CYR61, AXL, CTGF and ANKRD1) were determined in responses to 2.5, 5 and 10 μM of CPD10 (C) and CPD13 (D).
CPD10 and CPD13 Downregulate the TEADs transcriptional target genes: To determine CPD10 and CPD13 induced relative expression of TEADs target genes, A549 cells were treated with indicated doses for 24 hrs. Transcriptional profiling was performed with respective primer pairs. […] Further we tested the expression of one of the strong non hippo transcription factor, the C-Myc. As expected, c-MYC expression was not affected in response to CPD10 treatment (A). […] C-Myc expression was not affected. […] An Increase of NFKB1 expression is consistent with significant downregulation of YAP expression in response to CPD13 treatment (B). To determine the state of TEADs transcriptional target genes at higher concentrations, A549 cells were treated with indicated doses of compounds and analyzed for the expression of CYR61, AXL, CTGF and ANKRD1.

A549 cells = test: Cell proliferation assay (Cell Titre Glow) in A549 cells with TEAD4 depletion; settings: TEAD4 depleted A549 cells, compared with NTsi treated cells
Method: Method: Indicated cells were plated at 3000 cells/80 μl in each well. TEAD4 depletion was performed by reverse transfection with 20 nM of Dharmacon smart pool NTsiRNA and TEAD4 siRNA in 0.25 ul of lipofectamine mixed with 25% of OPTIMEM. After 18 hrs of transfection, cells were recovered for 24 hrs in fresh DMEM medium. Cells were treated with indicated compounds at different doses. After 48 hrs of dosing cells were recovered in fresh medium for 3 days. Cell Titre Glow (CTG) assay was used.
U20S cells stably expressing GFP fused TEAD4 and GFP alone were treated with different doses of CPD10 and analysed for cellular proliferation. […] Further we used cell lines expressing higher level of TEAD4 and performed depletion experiment followed by comparative sensitivity analysis.

Structure (SMILES): C=CS(=O)(=O)CCC(=O)Nc1nn(-c2ccccc2)cc1C [CPD10]
- TAZ expression (immunoblot) ([1]; 10 Um): significantly reduced
- TEAD4 and pan-TEAD expression (immunoblot) ([1]; highest concentration): reduced
- YAP expression (immunoblot) ([1]; indicated doses): downregulated in a dose dependent manner
- wild type p53 expression (immunoblot) ([1]; same protein samples): didn't resulted in change
- ANKRD1 relative expression (RT PCR) ([2]; 24 hrs, 10 μM): significantly reduced
- AXL relative expression (RT PCR) ([2]; 24 hrs, 2.5, 5 and 10 μM): suppressed at 2.5 μM and subsequently downregulated in a dose dependent manner
- CTGF relative expression (RT PCR) ([2]; 24 hrs, 2.5, 5 and 10 μM): suppressed at 2.5 μM and subsequently downregulated in a dose dependent manner
- CYR61 relative expression (RT PCR) ([2]; 24 hrs, 2.5, 5 and 10 μM): suppressed at 2.5 μM and subsequently downregulated in a dose dependent manner
- NFKB1 relative expression (RT PCR) ([2]; 24 hrs, low dose): minor increase
- c-MYC relative expression (RT PCR) ([2]; 24 hrs, low dose): not affected
- YAP/TAZ relative expression (RT PCR) ([2]; 24 hrs, low dose (2.5 μM of CPD10)): downregulated
- cellular proliferation sensitivity (A549 cells): lower sensitivity
